This note sets out measurements from patent US12583911B2, “Human immunodeficiency virus GP120 binding proteins” (ViiV Healthcare UK (No.5) Limited, priority 2022, dated 2026).

A short description of data set [1]: Melting temperature (Tm) of soluble CD4 domains, Prometheus System. The following applies: soluble CD4 domain with C-terminal 6xHis tag. It counts as physicochemical. As for the experimental part:
The best performing variants (SEQ ID NOs: 5-21) were fused with 6×His tag at their C-termini, expressed and purified from mammalian cells using methods as described in Example 1, except that purification was via a Ni-NTA resin (Cytiva, Marlborough MA) instead of Mabselect SuRe column, with standard protocol from the vendor.
These purified CD4 D1 variants (with C-terminal 6xHis tag) were then evaluated to determine their melting temperature (Tm, using Prometheus System, NanoTemper, München Germany), which indicates thermal stability, as well as their anti-viral activity against HIV-1 pseudotyped virus (see Example 2 above for methods using ACTOne cells).

Data set [2] concerns panel of HIV-1 envelopes (pseudotyped HIV-1 virus). Description: PSV assay (ACTOne cells), HIV-1 envelopes. It counts as cell-based. As for the experimental part: (§1) The anti-viral activity of the antigen binding proteins was measured in a pseudotyped virus (PSV) assay.
(§2) PSV was produced in HEK-293T cells (ATCC, Manassas VA) by co-transfecting expression plasmids encoding the HIV-1 gp160 envelope gene and an HIV-1 backbone plasmid using TRANSIT-2020 transfection reagent (Mirus Bio, Madison WI). A panel of HIV-1 PSVs expressing different gp160 envelope trimers was generated to evaluate the effectiveness of the antigen binding proteins of the invention against a wide spectrum of HIV-1 strains.
(§3) The genome of PSV used in this assay contains a luciferase gene that is expressed once the virus enters cells. Accordingly, the luminescence signal (after adding a substrate of luciferase) can be used to determine the level of viral infection.
(§4) The 50% tissue culture infectious dose (TCID) of a single thawed aliquot of each batch of PSV was determined in ACTOne cells. The ACTOne cell-line used in this assay was derived in-house from a genetically engineered 293T cell clone that expresses CD4, CXCR4, and CCR5. Cells were maintained in growth medium composed of Dulbecco's modified Eagle's medium (DMEM, Life Technologies) at 37° C. in a humidified 5% CO2-95% air environment. Cell monolayers were split by treatment with Trypsin-EDTA (0.05%).
(§5) To run the anti-viral assay, ACTOne cells were detached by treating the cell culture flask with trypsin (trypsinization) and resuspended in growth medium containing 2% of DMSO to a density of 2.5×10^5 cells/ml. One hundred μl of such cells was added to 10 μl of antigen binding protein pre-loaded in a 96-well plate. Ninety μl of PSV was then added to each well. The assay plates were incubated at 37° C. in a humidified incubator at 5% CO2 level. Plates were developed after 72 hours of incubation by adding 50 μl of BRIGHTGLO luciferase reagent (Promega, Madison WI) to each well, and transferring the plates to an ENVISION multilabel plate reader (PerkinElmer, Waltham MA) to measure the luminescence and determine the level of virus that had infected the cells. The higher the luminescence signal, the higher the level of infection.

Data set [3] deals with HIV-2 Env-pseudotypes (HIV-2-AID, HIV-2-ATM88, HIV-2-HCC-01). Description: PSV assay (ACTOne cells), HIV-2 envelopes. Type of data set: cell-based. As for the experimental part: as §1, §2, §3, §4, §5
HIV-2 differs from HIV-1 in that it originates from the transmission of simian immunodeficiency virus (SIV) from sooty mangabeys (SIVsmm) to human (Gao et al, J Virol. 1994; 68 (11): 7433-7447) whilst HIV-1 stems from the transmission from chimpanzees and western gorillas (HIV-1 group M and O, respectively). HIV-2 can also cause AIDS but is far less pathogenic and wide-spread than HIV-1 (de Silva et al, Trends Microbiol. 2008; 16 (12): 588-595; Da Silva et al, AIDS. 2008; 22 (10): 1195-1202). Though also using CD4 for infection (Sattentau et al, AIDS. 1988; 2 (2): 101-105), HIV-2 shares only 40% identity in the gp160 amino acid sequence with HIV-1, and is therefore less sensitive or insensitive to HIV-1 envelope-directed bnAbs (Kong et al, JVI 2012; 86 (2): 947-960).

The mark [4] stands for this setting: envelope CAP45.2.00.G3, PSV assay.

As to “D1m-E13C-I70C: soluble CD4 D1 variant of mD1.22 with E13C and I70C, SEQ ID NO:13, 6xHis tagged”, the “Tm (° C.)” value in data set [1] was 78.8 °C.

Take “D1m-T11C-K72C: soluble CD4 D1 variant of mD1.22 with T11C and K72C, SEQ ID NO:12, 6xHis tagged”: the “Tm (° C.)” value in data set [1] amounted to 79.9 °C.

Consider “D1m-K21C-G65C: soluble CD4 D1 variant of mD1.22 with K21C and G65C, SEQ ID NO:15, 6xHis tagged”, for which the “Tm (° C.)” value in data set [1] came to 80.1 °C.

On to “D1m-E91H: soluble CD4 D1 variant of mD1.22 with E91H, SEQ ID NO:7, 6xHis tagged [Molecule D1m-E91H]”, for which the “Tm (° C.)” value in data set [1] came out at 72.6 °C.

With “D1m-K8C-G99C: soluble CD4 D1 variant of mD1.22 with K8C and G99C, SEQ ID NO:11, 6xHis tagged [Molecule D1m-K8C-G99C]”, in data set [1], the “Tm (° C.)” value is 88.8 °C.

For the substance “D1m-K8C-G99C_Fc: CD4 D1m-K8C-G99C domain fused to human Fc, SEQ ID NO:158; CD4 control”, the IC50 – broadly, the point on the concentration scale where inhibition reaches its midpoint – in data set [2] (envelope 93UG065, PSV assay) was 143 nM; in data set [2] (envelope 246F3, PSV assay) it was 4.28 nM; in data set [2] (envelope 0260.v5.c36, PSV assay), 119 nM; in data set [2] (envelope 398F1, PSV assay) it was 90.5 nM; in data set [2] (envelope 928_28, PSV assay), 0.77 nM; in data set [2] (envelope 3326_V4_C3) it was over 500 nM. The IC50 in data set [2] (envelope 3326_V4_C3, PSV assay) is over 500 nM; in data set [2] (envelope 3468_V1_C12), 64.2 nM; in data set [2] (envelope 3468_V1_C12, PSV assay), 64.2 nM; in data set [2] (envelope 3637_V5_C3), over 500 nM; in data set [2] (envelope 3637_V5_C3, PSV assay) it was over 500 nM; in data set [2] (envelope 6471_V1_C16, PSV assay) it was 5.07 nM. For the same substance, the IC50 in data set [2] (envelope 25710, PSV assay) amounted to 1.32 nM; in data set [2] (envelope 42368), 1.58 nM; in data set [2] (envelope 42368, PSV assay), 1.58 nM; in data set [2] (envelope 620345_C1, PSV assay) it was 99.3 nM; in data set [2] (envelope BJOX2000, PSV assay), 2.34 nM; in data set [2] (envelope CAP45.2.00.G3), 20.5 nM. Further, the IC50 in data set [2] (setting [4]) was 20.5 nM; in data set [2] (envelope CC1/85), 1.98 nM; in data set [2] (envelope CC1/85, PSV assay) it was 1.98 nM; in data set [2] (envelope CE0217, PSV assay) it was 2.53 nM; in data set [2] (envelope CE1176, PSV assay), 4.22 nM; in data set [2] (envelope CH119, PSV assay), 3.25 nM. Further, the IC50 in data set [2] (envelope CNE8, PSV assay) amounted to 347 nM; in data set [2] (envelope CNE55, PSV assay) it was 41.8 nM; in data set [2] (envelope JR-CSF, PSV assay) it was 5.47 nM; in data set [2] (envelope JRFL, PSV assay) it was 1.12 nM; in data set [2] (envelope Q461_E2), 11.8 nM; in data set [2] (envelope Q461_E2, PSV assay), 11.8 nM. In addition, the IC50 in data set [2] (envelope T278.50) came to 1.43 nM; in data set [2] (envelope T278.50, PSV assay) it was 1.43 nM; in data set [2] (envelope TH976_17, PSV assay), 39 nM; in data set [2] (envelope TRO11, PSV assay), 147 nM; in data set [2] (envelope X1632, PSV assay), 1.82 nM; in data set [2] (envelope X2088.C9), 9.2 nM. Further, the IC50 in data set [2] (envelope X2088.C9, PSV assay) stood at 9.2 nM; in data set [2] (envelope X2278, PSV assay) it was 44.6 nM; in data set [2] (envelope YU-2, PSV assay), 0.2 nM; in data set [2] (envelope ZM106.9), 15.1 nM; in data set [2] (envelope ZM106.9, PSV assay) it was 15.1 nM; in data set [3] (envelope HIV-2-AID, PSV assay, ACTOne cells), 24.4 nM. In addition, the IC50 in data set [3] (envelope HIV-2-ATM88, PSV assay) is 2.72 nM; in data set [3] (envelope HIV-2-HCC-01, ACTOne cells), over 300 nM; in data set [3] (envelope HIV-2-HCC-01, PSV assay), over 300 nM.

On to “D1m-E87G: soluble CD4 D1 variant of mD1.22 with E87G, SEQ ID NO:8, 6xHis tagged [Molecule D1m-E87G]”, for which, in data set [1], the “Tm (° C.)” value stood at 71.9 °C.

With “D1m-N52W: soluble CD4 D1 variant of mD1.22 with N52W, SEQ ID NO:9, 6xHis tagged [Molecule D1m-N52W]”, in data set [1], the “Tm (° C.)” value was determined as 72 °C.

For the substance “D1m-K8I: soluble CD4 D1 variant of mD1.22 with K8I, SEQ ID NO:10, 6xHis tagged [Molecule D1m-K8I]”, the “Tm (° C.)” value in data set [1] turned out to be 75.9 °C.

With “D1m-K8V: soluble CD4 D1 variant of mD1.22 with K8V, SEQ ID NO:5, 6xHis tagged [Molecule D1m-K8V]”, the “Tm (° C.)” value in data set [1] is 77.1 °C.

“D1m-E91Q: soluble CD4 D1 variant of mD1.22 with E91Q, SEQ ID NO:6, 6xHis tagged [Molecule D1m-E91Q]”: the “Tm (° C.)” value in data set [1] turned out to be 72.4 °C.

Regarding “D1m-H27C-G38C: soluble CD4 D1 variant of mD1.22 with H27C and G38C, SEQ ID NO:14, 6xHis tagged”, in data set [1], the “Tm (° C.)” value worked out at 90.1 °C.

Regarding “D1mD2_His: soluble CD4 D1D2 variant mD1.22-D2 (SEQ ID NO:2) plus C-terminal 6xHis tag [Molecule D1mD2_His, reference compound]”, the IC50 in data set [2] (envelope 42368, PSV assay) was 7.29 nM; in data set [2] (envelope BJOX2000, PSV assay), 33.4 nM; in data set [2] (setting [4]), over 500 nM; in data set [2] (envelope CH119, PSV assay), 120 nM; in data set [2] (envelope HXB2, PSV assay) it was 0.07 nM; in data set [2] (envelope LAI, PSV assay) it was 5.41 nM. The IC50 in data set [2] (envelope NL4-3, PSV assay) stood at 0.74 nM; in data set [2] (envelope T278.50, PSV assay), 16 nM; in data set [2] (envelope TRO11, PSV assay), 17.3 nM; in data set [2] (envelope X1632_S2_B10, PSV assay) it was 14.9 nM.
